We go through one molecule from patent US9504699B2, “Delayed-release glucocorticoid treatment of rheumatoid disease” (Horizon Pharma AG, priority 2006, dated 2016).

Assay type in all cases: in vivo, human
Data set [1] relates to adult RA patients. Nature of the data set: Phase III study, double-blind phase: adverse events.
Data set [2] relates to adult RA patients. As to the kind of experiment: 9-month open follow-up on Prednisone delayed-release: duration of morning stiffness. The note with it: prednisone = all subjects. From the text:
Although efficacy was not the main objective of this open follow-up study, the order of reporting was kept the same as in the previous study report on the double-blind phase. […] Mean Daily Duration of Morning Stiffness
The mean daily duration of morning stiffness at start of the double-blind period (Visit 2), at start of the open follow-up period (Visit 5) and at end of study (Visit 8) as well as the relative changes are presented in Table 10 and FIG. 2 for the study population.
Taking advantage of the higher number of available data, the interpretation of the results was carried out for the total numbers.

The subject of another data set is CRP. Nature of the data set: 9-month open follow-up: CRP. Particulars: after 12 weeks double-blind, by group; prednisone = Total. From the text: The median values of the inflammatory signs CRP and IL-6 during the open follow-up period (Visit 5 to Visit 8) and the respective absolute changes are presented in Table 12 and FIG. 3.
[3] abbreviates: 12-week double-blind phase, prednisone = Total.
The mark [4] stands for this setting: after 12 weeks double-blind, by group.
Where [5] appears, read: subjects of open follow-up, by double-blind group.

Regarding `C[C@]12C=CC(=O)C=C1CC[C@@H]1[C@@H]2C(=O)C[C@@]2(C)[C@H]1CC[C@]2(O)C(=O)CO` [prednisone], in the data set with adult RA patients [1] (12-week double-blind phase, label prednisone = Total of both groups (N = 288)), the “All AEs (at least one treatment-emergent AE)” value is 118 (41.0) No. (%) subjects. In the data set on adult RA patients [1] (setting [3]), the “AE: Abdominal pain (Upper)” value was 13 (4.5) No. (%) subjects, the “AE: Flushing” value is recorded as 10 (3.5) No. (%) subjects, the “AE: Headache” value was 10 (3.5) No. (%) subjects and the “AE: Nasopharyngitis (values printed on the line headed 'Upper')” value is 12 (4.2) No. (%) subjects. In the data set on adult RA patients [1] (setting [3]), the “AE: Nausea” value was 9 (3.1) No. (%) subjects, the “AE: Rheumatoid arthritis” value is reported as 24 (8.3) No. (%) subjects, the “Drug-related AE: Abdominal pain (Upper)” value is 7 (2.4) No. (%) subjects and the “Drug-related AE: Headache” value is recorded as 6 (2.1) No. (%) subjects. Also, in the data set with adult RA patients [1] (setting [3]), the “Drug-related AE: Nausea (values printed on the line headed 'Upper')” value is recorded as 6 (2.1) No. (%) subjects and the “Drug-related AE: Rheumatoid arthritis” value was 5 (1.7) No. (%) subjects. In addition, the SAEs result with adult RA patients [1] (double-blind phase, both groups, 2.4%) is recorded as “Seven”. For the same molecule, the “AEs causing discontinuation of prednisone” value in the data set with adult RA patients [1] (double-blind phase, both groups, 7.6%) is reported as 22 subjects. The “SAE judged to be related to prednisone by the investigator” value in the data set on adult RA patients [1] (of the 7 subjects with SAEs) is recorded as “one”. Besides, in the data set with adult RA patients [2] (setting [4]), the “Duration of morning stiffness, Visit 5 (Start of Follow-up Period), mean” value is reported as 125.56 min and the “Duration of morning stiffness, Visit 5 (Start of Follow-up Period), median” value was found to be 83.93 min. In the data set on adult RA patients [2] (setting [5]), the “Duration of morning stiffness, Visit 2 (Start of Double-blind Period), mean” value is on record as 169.80 min and the “Duration of morning stiffness, Visit 2 (Start of Double-blind Period), median” value was 143.21 min. The “CRP (median), Visit 5 (Start of Follow-up)” value in the data set with CRP is 9.40 (n = 249) mg/L.
